Test results: article PMC9150124, “Design of a Potent, Selective, and Brain-Penetrant Inhibitor of Wnt-Deactivating Enzyme Notum by Optimization of a Crystallographic Fragment Hit” (Journal of Medicinal Chemistry, 2022)

Columns and labels:
Experiment in all cases: SelectScreen kinase profiling, SSBK LanthaScreen Binding SP Technology
[1] = target: kinase named in conditions (Homo sapiens, UniProt Q00526); conditions: CDK3/cyclin E1, 10 μM
[2] = target: kinase named in conditions (Homo sapiens, UniProt P45985); conditions: MAP2K4 (MEK4), 10 μM
[3] = target: kinase named in conditions (Homo sapiens, UniProt Q8IWQ3); conditions: BRSK2, 10 μM
[4] = target: kinase named in conditions (Homo sapiens, UniProt Q9BYP7); conditions: WNK3, 10 μM
[5] = target: kinase named in conditions (Homo sapiens, UniProt Q6PHR2); conditions: ULK3, 10 μM
[6] = target: kinase named in conditions (Homo sapiens, UniProt Q86UE8); conditions: TLK2, 10 μM
[7] = target: kinase named in conditions (Homo sapiens, UniProt Q8N5S9); conditions: CAMKK1 (CAMKKA), 10 μM
[8] = target: kinase named in conditions (Homo sapiens, UniProt P24941)
[9] = target: kinase named in conditions (Homo sapiens, UniProt Q7L7X3); conditions: TAOK1, 10 μM
[10] = target: kinase named in conditions (Homo sapiens, UniProt Q8IYT8); conditions: ULK2, 10 μM
[11] = target: kinase named in conditions (Homo sapiens, UniProt P10721, T670I/V559D); conditions: KIT V559D T670I, 10 μM
[12] = target: kinase named in conditions (Homo sapiens, UniProt P11362, V561M); conditions: FGFR1 V561M, 10 μM
[13] = target: kinase named in conditions (Homo sapiens, UniProt Q32MK0); conditions: MLCK (MLCK2), 10 μM
[14] = target: kinase named in conditions (Homo sapiens, UniProt P36507); conditions: MAP2K2 (MEK2), 10 μM
[15] = target: kinase named in conditions (Homo sapiens, UniProt P30530, R499C); conditions: AXL R499C, 10 μM
[16] = target: kinase named in conditions (Homo sapiens, UniProt P04049, Y340D/Y341D); conditions: RAF1 (cRAF) Y340D Y341D, 10 μM
[17] = target: kinase named in conditions (Homo sapiens, UniProt P10721, D820E); conditions: KIT D820E, 10 μM
[18] = target: kinase named in conditions (Homo sapiens, UniProt Q9UKE5); conditions: TNIK, 10 μM
[19] = target: kinase named in conditions (Homo sapiens, UniProt Q99640); conditions: PKMYT1, 10 μM
[20] = target: kinase named in conditions (Homo sapiens, UniProt O00444); conditions: PLK4, 10 μM
[21] = target: kinase named in conditions (Homo sapiens, UniProt Q16832); conditions: DDR2, 10 μM
[22] = target: kinase named in conditions (Homo sapiens, UniProt O00238); conditions: BMPR1B (ALK6), 10 μM
[23] = target: kinase named in conditions (Homo sapiens, UniProt Q9H4A3); conditions: WNK1, 10 μM
[24] = target: kinase named in conditions (Homo sapiens, UniProt P07949, V804M); conditions: RET V804M, 10 μM
[25] = target: kinase named in conditions (Homo sapiens, UniProt Q16513); conditions: PKN2 (PRK2), 10 μM
[26] = target: kinase named in conditions (Homo sapiens, UniProt Q13131); conditions: 10 μM
[27] = target: kinase named in conditions (Homo sapiens, UniProt Q13873); conditions: BMPR2, 10 μM
[28] = target: kinase named in conditions (Homo sapiens, UniProt Q9UEE5); conditions: STK17A (DRAK1), 10 μM
[29] = target: kinase named in conditions (Homo sapiens, UniProt P22607, K650M); conditions: FGFR3 K650M, 10 μM
[30] = target: kinase named in conditions (Homo sapiens, UniProt Q04771, R206H); conditions: ACVR1 (ALK2) R206H, 10 μM
[31] = target: kinase named in conditions (Homo sapiens, UniProt Q9UM73, L1196M); conditions: ALK L1196M, 10 μM
[32] = target: kinase named in conditions (Homo sapiens, UniProt P53667); conditions: LIMK1, 10 μM
[33] = target: kinase named in conditions (Homo sapiens, UniProt P33981); conditions: TTK, 10 μM

In the case of `FC(F)(F)c1c(Cl)ccc(-n2ccnn2)c1Cl` [8l, 1-(2,4-Dichloro-3-(trifluoromethyl)phenyl)-1H-1,2,3-triazole], the inhibition at 10 µM [1] is reported as 4%, the inhibition at 10 µM [2] is reported as -2% and the inhibition at 10 µM [3] is reported as 4%. For the same compound, the inhibition at 10 µM [4] was -10%, the inhibition at 10 µM [5] was -4% and the inhibition at 10 µM [6] was 11%. It also gave an inhibition at 10 µM [7] of -3%, an inhibition at 10 µM ([8]; CDK2/cyclin A1, 10 μM) of 3% and an inhibition at 10 µM ([8]; CDK2/cyclin E1, 10 μM) of -4%. The inhibition at 10 µM ([8]; CDK2/cyclin O, 10 μM) was 7%, the inhibition at 10 µM [9] was 0% and the inhibition at 10 µM [10] was 8%. It also gave an inhibition at 10 µM [11] of -3%, an inhibition at 10 µM [12] of 4% and an inhibition at 10 µM [13] of -3%. The inhibition at 10 µM [14] was 5%, the inhibition at 10 µM [15] was 5% and the inhibition at 10 µM [16] was -3%. It also gave an inhibition at 10 µM [17] of -4%, an inhibition at 10 µM [18] of 0% and an inhibition at 10 µM [19] of 0%. For the same compound, the inhibition at 10 µM [20] was -1%, the inhibition at 10 µM [21] was -3% and the inhibition at 10 µM [22] was 0%. The inhibition at 10 µM [23] was 2%, the inhibition at 10 µM [24] was 8% and the inhibition at 10 µM [25] was -4%. It also gave an inhibition at 10 µM ([26]; AMPK (A1/B1/G2)) of -13%, an inhibition at 10 µM ([26]; AMPK (A1/B1/G3)) of -4% and an inhibition at 10 µM ([26]; AMPK (A1/B2/G1)) of 6%. For the same compound, the inhibition at 10 µM [27] was 13%, the inhibition at 10 µM [28] was 13% and the inhibition at 10 µM [29] was 2%. The inhibition at 10 µM [30] was 0%, the inhibition at 10 µM [31] was -3% and the inhibition at 10 µM [32] was 6%. For the same compound, the inhibition at 10 µM [33] was 5%.
